Measured values published in patent US12091426B2, “Bifunctional degraders of hematopoietic progenitor kinase and therapeutic uses thereof” (Nurix Therapeutics, Inc., priority 2021, dated 2024).

Target: T1, HPK1 (Homo sapiens, UniProt Q92918)
T1 construct: A HiBiT tag was introduced by CRISPR on the N terminus of HPK1 in Jurkat cells; host or cells: Jurkat cells (ATCC TIB-152), monoclonal line with CRISPR knock-in of HiBiT at the endogenous HPK1 locus
Experiment: HPK1 Cellular HiBit Degradation Assay
Assay type: cell-based
Settings: HiBiT HPK1 Jurkat cells, 24 hrs; for DC50: concentration at which 50% of HPK1 was remaining, read-out: DC50 Category; for Dmax: Jurkat, read-out: Dmax Category
Summary of the method: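 Jurkat cells with CRISPR knock-in N-terminal HiBiT-HPK1 were treated with CTMs (11-point, 3.16-fold, 10 uM to 0.1 nM final) for 24 hrs at 37° C. HiBiT lytic luminescence, with parental Jurkat as background and DMSO as 100%, gave % HPK1 remaining; four-parameter fit yielded DC50 and Dmax (100 minus lowest % remaining).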

[1] = maximum degradation vs DMSO vehicle control

T1 sequence (Q92918 whole entry): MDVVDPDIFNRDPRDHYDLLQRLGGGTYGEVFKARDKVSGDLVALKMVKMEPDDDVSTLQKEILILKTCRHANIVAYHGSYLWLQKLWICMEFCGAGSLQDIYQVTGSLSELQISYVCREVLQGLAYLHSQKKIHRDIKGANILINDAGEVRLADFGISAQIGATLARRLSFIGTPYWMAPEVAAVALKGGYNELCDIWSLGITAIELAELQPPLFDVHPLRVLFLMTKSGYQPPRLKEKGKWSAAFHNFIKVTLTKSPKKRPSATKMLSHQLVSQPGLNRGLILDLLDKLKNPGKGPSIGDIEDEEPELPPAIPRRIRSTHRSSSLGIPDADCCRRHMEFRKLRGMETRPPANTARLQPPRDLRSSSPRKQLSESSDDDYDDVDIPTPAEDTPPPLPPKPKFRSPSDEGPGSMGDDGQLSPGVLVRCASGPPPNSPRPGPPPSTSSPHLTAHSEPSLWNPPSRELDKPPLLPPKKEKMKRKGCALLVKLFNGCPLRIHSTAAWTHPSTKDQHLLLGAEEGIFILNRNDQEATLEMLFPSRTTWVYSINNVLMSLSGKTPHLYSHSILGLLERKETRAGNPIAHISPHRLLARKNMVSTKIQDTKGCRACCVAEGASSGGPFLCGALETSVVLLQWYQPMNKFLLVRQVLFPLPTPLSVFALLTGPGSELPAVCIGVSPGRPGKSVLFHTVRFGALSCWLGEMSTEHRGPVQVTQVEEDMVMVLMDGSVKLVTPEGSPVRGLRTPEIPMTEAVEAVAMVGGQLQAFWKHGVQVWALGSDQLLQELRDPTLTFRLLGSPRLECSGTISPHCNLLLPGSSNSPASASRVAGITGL

SMILES	DC50	Dmax [1]	Dmax Category [1]
CC(C)n1cnc2cc(-c3ccc4c(c3)N([C@H]3C[C@@H](N(C)C)C3)C(=O)C43CCN(C(=O)C4CCN(C(=O)C5CCN(c6ccc(C7CCC(=O)NC7=O)cn6)CC5)CC4)CC3)nc(Nc3ccccc3F)c21 (mixture of isomers) [Example 75, (3RS)-3-[6-(4-{4-[(6-{4-[(2-fluorophenyl)amino]-3-(propan-2-yl)-3H-imidazo[4,5-c]pyridin-6-yl}-2-oxo-1-[(1S,3S)-3-(dimethylamino)cyclobutyl]-1,2-dihydrospiro[indole-3,4′-piperidin]-1′-yl)carbonyl]piperidine-1-carbonyl}piperidin-1-yl)pyridin-3-yl]piperidine-2,6-dione]	100 to 500 nM	70 to 85%	–
CC(C)n1cnc2cc(-c3ccc4c(c3)N([C@H]3C[C@@H](N5CCCCC5)C3)C(=O)C43CCN(C(=O)C4CCN(C(=O)C5CCN(c6ccc(C7CCC(=O)NC7=O)cn6)CC5)CC4)CC3)nc(Oc3ccccc3F)c21 (mixture of isomers) [Example 76, (3RS)-3-(6-{4-[4-({6-[4-(2-fluorophenoxy)-3-(propan-2-yl)-3H-imidazo[4,5-c]pyridin-6-yl]-2-oxo-1-[(1S,3S)-3-(piperidin-1-yl)cyclobutyl]-1,2-dihydrospiro[indole-3,4′-piperidin]-1′-yl}carbonyl)piperidine-1-carbonyl]piperidin-1-yl}pyridin-3-yl)piperidine-2,6-dione]	100 to 500 nM	> 85%	–
CC(C)n1cnc2cc(-c3ccc4c(c3)N([C@H]3C[C@@H](N5CCCCC5)C3)C(=O)C43CCN(C(=O)C4CCN(C(=O)C5CCN(c6ccc(C7CCC(=O)NC7=O)cn6)CC5)CC4)CC3)nc(Nc3ccncc3F)c21 (mixture of isomers) [Example 77, (3RS)-3-[6-(4-{4-[(6-{4-[(3-Fluoropyridin-4-yl)amino]-3-(propan-2-yl)-3H-imidazo[4,5-c]pyridin-6-yl}-2-oxo-1-[(1S,3S)-3-(piperidin-1-yl)cyclobutyl]-1,2-dihydrospiro[indole-3,4′-piperidin]-1′-yl)carbonyl]piperidine-1-carbonyl}piperidin-1-yl)pyridin-3-yl]piperidine-2,6-dione]	< 100 nM	70 to 85%	–
CC(C)n1cnc2cc(-c3ccc4c(c3)N([C@H]3C[C@@H](N5CCCCC5)C3)C(=O)C43CCN(C(=O)C4CCN(C(=O)C5CCN(c6ccc(C7CCC(=O)NC7=O)cn6)CC5)CC4)CC3)nc(NC3CCOCC3)c21 (mixture of isomers) [Example 78, (3RS)-3-[6-(4-{4-[(6-{4-[(oxan-4-yl)amino]-3-(propan-2-yl)-3H-imidazo[4,5-c]pyridin-6-yl}-2-oxo-1-[(1S,3S)-3-(piperidin-1-yl)cyclobutyl]-1,2-dihydrospiro[indole-3,4′-piperidin]-1′-yl)carbonyl]piperidine-1-carbonyl}piperidin-1-yl)pyridin-3-yl]piperidine-2,6-dione]	< 100 nM	50 to 70%	–
CC(C)n1cnc2cc(-c3ccc4c(c3)N([C@H]3C[C@@H](N5CCCCC5)C3)C(=O)C43CCN(C(=O)C4CCN(C(=O)C5CCN(c6ccc(C7CCC(=O)NC7=O)nc6)CC5)CC4)CC3)nc(Nc3ccncc3F)c21 (mixture of isomers) [Example 82, (3RS)-3-[5-(4-{4-[(6-{4-[(3-fluoropyridin-4-yl)amino]-3-(propan-2-yl)-3H-imidazo[4,5-c]pyridin-6-yl}-2-oxo-1-[(1S,3S)-3-(piperidin-1-yl)cyclobutyl]-1,2-dihydrospiro[indole-3,4′-piperidin]-1′-yl)carbonyl]piperidine-1-carbonyl}piperidin-1-yl)pyridin-2-yl]piperidine-2,6-dione]	< 100 nM	70 to 85%	–
CC(C)n1cnc2cc(-c3ccc4c(c3)N([C@H]3C[C@@H](N5CCCCC5)C3)C(=O)C43CCN(C(=O)C4CCN(C(=O)C5CCN(c6ccc(C(=O)NC7CCC(=O)NC7=O)nc6)CC5)CC4)CC3)nc(Nc3ccccc3F)c21 (mixture of isomers) [Example 83, N-[(3RS)-2,6-dioxopiperidin-3-yl]-5-(4-{4-[(6-{4-[(2-fluorophenyl)amino]-3-(propan-2-yl)-3H-imidazo[4,5-c]pyridin-6-yl}-2-oxo-1-[(1S,3S)-3-(piperidin-1-yl)cyclobutyl]-1,2-dihydrospiro[indole-3,4′-piperidin]-1′-yl)carbonyl]piperidine-1-carbonyl}piperidin-1-yl)pyridine-2-carboxamide]	100 to 500 nM	50 to 70%	–
CC(C)n1cnc2cc(-c3ccc4c(c3)N([C@H]3C[C@@H](N5CCCCC5)C3)C(=O)C43CCN(C(=O)C4CCN(C(=O)C5CCN(c6ccc7c(c6)C(=O)N(C6CCC(=O)NC6=O)C7=O)CC5)CC4)CC3)nc(NC3CC3)c21 (mixture of isomers) [Example 86, 5-{4-[4-({6-[4-(cyclopropylamino)-3-(propan-2-yl)-3H-imidazo[4,5-c]pyridin-6-yl]-2-oxo-1-[(1S,3S)-3-(piperidin-1-yl)cyclobutyl]-1,2-dihydrospiro[indole-3,4′-piperidin]-1′-yl}carbonyl)piperidine-1-carbonyl]piperidin-1-yl}-2-[(3RS)-2,6-dioxopiperidin-3-yl]-2,3-dihydro-1H-isoindole-1,3-dione]	100 to 500 nM	70 to 85%	–
CC(C)n1cnc2cc(-c3ccc4c(c3)N([C@H]3C[C@@H](N5CCCCC5)C3)C(=O)C43CCN(C(=O)C4CCN(C(=O)C5CCN(c6ccc7c(c6)C(=O)N(C6CCC(=O)NC6=O)C7=O)CC5)CC4)CC3)nc(Nc3ccccc3F)c21 (mixture of isomers) [Example 87, 2-[(3RS)-2,6-dioxopiperidin-3-yl]-5-(4-{4-[(6-{4-[(2-fluorophenyl)amino]-3-(propan-2-yl)-3H-imidazo[4,5-c]pyridin-6-yl}-2-oxo-1-[(1S,3S)-3-(piperidin-1-yl)cyclobutyl]-1,2-dihydrospiro[indole-3,4′-piperidin]-1′-yl)carbonyl]piperidine-1-carbonyl}piperidin-1-yl)-2,3-dihydro-1H-isoindole-1,3-dione]	< 100 nM	70 to 85%	–
CC(C)n1cnc2cc(-c3ccc4c(c3)N(C3CC(N5CCCCC5)C3)C(=O)C43CCN(C(=O)C4CCN(C(=O)C5CCN(c6ccc7c(c6)C(=O)N(C6CCC(=O)NC6=O)C7=O)CC5)CC4)CC3)nc(Nc3ccncc3F)c21 (racemic) [Example 88, 2-[(3RS)-2,6-dioxopiperidin-3-yl]-5-(4-{4-[(6-{4-[(3-Fluoropyridin-4-yl)amino]-3-(propan-2-yl)-3H-imidazo[4,5-c]pyridin-6-yl}-2-oxo-1-[(1S,3S)-3-(piperidin-1-yl)cyclobutyl]-1,2-dihydrospiro[indole-3,4′-piperidin]-1′-yl)carbonyl]piperidine-1-carbonyl}piperidin-1-yl)-2,3-dihydro-1H-isoindole-1,3-dione]	< 100 nM	–	C (C: >50%-<70%)
CC(C)n1cnc2cc(-c3ccc4c(c3)N([C@H]3C[C@@H](N5CCCCC5)C3)C(=O)C43CCN(C(=O)C4CCN(C(=O)C5CCN(c6ncc(C7CCC(=O)NC7=O)cn6)CC5)CC4)CC3)nc(NC3CC3)c21 (mixture of isomers) [Example 89, (3RS)-3-(2-{4-[4-({6-[4-(cyclopropylamino)-3-(propan-2-yl)-3H-imidazo[4,5-c]pyridin-6-yl]-2-oxo-1-[(1S,3S)-3-(piperidin-1-yl)cyclobutyl]-1,2-dihydrospiro[indole-3,4′-piperidin]-1′-yl}carbonyl)piperidine-1-carbonyl]piperidin-1-yl}pyrimidin-5-yl)piperidine-2,6-dione]	100 to 500 nM	50 to 70%	–
